# Laboratory results as given in patent publication US20150284452A1, “ANTIMICROBIAL COMPOSITIONS” (priority 2012, published 2015).
# Tested on: S. aureus NRS384 (USA300)
# Assay: MIC assay at multiple inoculum sizes
# Type: cell-based, Staphylococcus aureus
# Description: 5×10^6 cfu/ml and 75 nanomolar against an inoculum of 5×10^8 cfu/ml.
# [1] = High Titer 5,000,000 CFU/well, ND = higher than highest tested concentration
# [2] = High Titer 500,000,000 CFU/well, ND = higher than highest tested concentration
# [3] = Low Titer 50,000,000 CFU/well, ND = higher than highest tested concentration
substance,measurement,setting,value
"Lysostaphin (Sigma L9043): lysostaphin control (Sigma L9043), glycylglycine endopeptidase",MIC Rep 1,[1],0.0271 µM
same,MIC Rep 2,[1],0.0271 µM
same,MIC Ave,"High Titer 5,000,000 CFU/well, average of replicates",0.0271 µM
same,MIC Ave,[2],0.2 µM
same,MIC Rep 2,[2],0.2 µM
same,MIC Rep 1,"Low Titer 50,000 CFU/well",0.054 µM
same,MIC Rep 2,"Low Titer 50,000 CFU/well",0.0271 µM
same,MIC Ave,"Low Titer 50,000 CFU/well, average of replicates",0.0407 µM
same,MIC Ave,[3],0.2 µM
same,MIC Rep 1,[3],0.2 µM
same,MIC Rep 2,[3],0.2 µM
